Tested on: Rat Retina
Assay: Light-induced retinal degeneration in rats, systemic (IP) nitrone; ERG and ONL histology
Details: rat, in vivo
Description: Consistent with previous publications (1-2,5), a dose of 50 mg/kg PBN and S-PBN dissolved in saline was chosen for intraperitoneal injection in the rats in the treatment group. An equal volume of saline was injected into control rats.
A light-stress paradigm of 2,700 lux for 6 hours was used to test the effect of PBN at different time points before (0.5 hour, 3 hours, 6 hours, 12 hours, 16 hours, and 24 hours) or after (0.5 hour and 3 hours) light exposure. The effect of S-PBN was tested using the same dose and protocol of PBN at 0.5 hours before light exposure.
Electroretinography—After light exposure, rats were returned to their dim cyclic light (5-10 lux) environment for 7 days before ERG recordings were performed. Flash ERGs were recorded with the Diagnosys Espion E2 ERG System (Diagnosys, LLC, Lowell, Mass.). Rats were maintained in total darkness overnight and prepared for ERG recording under dim red light. They were anesthetized with ketamine (120 mg/kg body weight) and xylazine (6 mg/kg body weight) intramuscularly (IM). One drop of 10% (v/v) phenylephrine was applied to the cornea to dilate the pupil, and one drop of 0.5% (v/v) proparacaine HCl was applied for local anesthesia. Rats were kept on a heating pad at 37° C. during recordings. A gold electrode was placed on the cornea, a reference electrode was positioned in the mouth, and a ground electrode was placed on the foot; rats were then placed inside a Ganzfeld illuminating sphere. Responses were differentially amplified, averaged, and stored. For the assessment of rod photoreceptor function (scotopic ERG), five strobe flash stimuli were presented at flash intensities at −2.3, −1.3, 0.7, and 2.7 log cd·s/m^2. The amplitude of the a-wave was measured from the pre-stimulus baseline to the a-wave trough. The amplitude of the b-wave was measured from the trough of the a-wave to the peak of the b-wave. For the evaluation of cone function (photopic ERG), a strobe flash stimulus (3.3 log cd·s/m^2) was presented to dilated, light-adapted (5 minutes at 1.7 log cd·s/m^2) rats. The amplitude of the cone b-wave was measured from the trough of the a-wave to the peak of the b-wave.
Histology—After ERG recordings, rats were killed by carbon dioxide asphyxiation for light microscopic evaluation of retinal structure. Immediately after death, eyes were excised, placed in fixative (4% (w/v) paraformaldehyde, 2% (v/v) trichloroacetic acid, 20% (v/v) isopropyl alcohol, 2% (v/v) zinc chloride, and 72% (v/v) distilled water), and embedded in paraffin. Sections of 5 μm were cut along the vertical meridian through the optic nerve and stained with hematoxylin and eosin (H&E).
The PBN derivatives were injected intraperitoneally (IP) into albino SD rats at 50 mg/kg body weight at 0.5 hours before the start of light-damage exposure at 2,700 lux for 6 hours. After the exposure, the rats were moved to their dim cyclic room to recover for a week. Retinal damage/protection was assessed by functional analysis by ERG and structural analysis of histological sections. Dark adapted (12 hour) and Light adapted (for 2 hour) retinas were utilized as controls.

`CC(C)(C)/[N+]([O-])=C/c1ccccc1` [Compound 1, α-phenyl-N-tert-butyl nitrone] was tested, and the “% Protection (ONL, Inferior retina)” value was 85.0%, the “% Protection (ONL, Superior retina)” value was 87.1% and the “retention of photoreceptor cells” value was “approximately 90%”.

From patent US20130225694A1, “COMPOSITIONS AND METHODS OF INHIBITING RETINAL DEGENERATION” (Oklahoma Medical Research Foundation, priority 2012, published 2013)
